This note sets out measurements from US12209072B2, “Cyclopentyl acids as LPA antagonists” (BRISTOL-MYERS SQUIBB COMPANY, priority 2018, dated 2025).

Each structure is given as a SMILES string.

This experiment has as its target T1, human LPA1 (Homo sapiens, UniProt Q92633).
T1 construct: expressed in transfected cells; host or cells: Chinese hamster ovary (CHO) cells
Kind of experiment: LPA1 functional antagonist assay (LPA-induced calcium flux). As to conditions: CHO cells overexpressing human LPA1; inhibition of calcium flux induced by 10 nM LPA; read-out: hLPA1 IC50. It is filed as cell-based. The method, boiled down:
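CHO cells overexpressing human LPA1, loaded with calcium dye, given compound (0.08 nM–5 μM final, 0.5% DMSO) for 20 min at room temperature in HBSS/HEPES with 0.1% fatty-acid-free BSA, then stimulated with 10 nM LPA. IC50 defined as 50% inhibition of LPA-induced calcium flux, from 4-parameter logistic fit.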

T1 sequence (Q92633 whole entry): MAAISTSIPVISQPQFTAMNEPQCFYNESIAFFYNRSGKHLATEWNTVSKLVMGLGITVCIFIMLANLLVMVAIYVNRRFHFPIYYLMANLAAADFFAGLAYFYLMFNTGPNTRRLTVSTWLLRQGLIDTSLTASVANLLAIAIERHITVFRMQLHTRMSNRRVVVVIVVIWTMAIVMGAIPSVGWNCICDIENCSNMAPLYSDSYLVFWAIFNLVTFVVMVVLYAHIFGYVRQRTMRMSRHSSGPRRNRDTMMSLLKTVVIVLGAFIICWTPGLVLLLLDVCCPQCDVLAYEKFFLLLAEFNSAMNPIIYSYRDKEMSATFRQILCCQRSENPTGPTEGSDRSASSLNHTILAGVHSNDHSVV

In the case of `CCCN(C)C(=O)OCc1c(-c2ccc(O[C@H]3CCC[C@H]3CC(=O)O)c(C)n2)nnn1C` (racemic) [Example 88, (±)-cis-2-(2-((2-methyl-6-(1-methyl-5-(((methyl(propyl)carbamoyl)oxy)methyl)-1H-1,2,3-triazol-4-yl)pyridin-3-yl)oxy)cyclopentyl)acetic acid], the IC50 amounted to 0.425 µM. Then `Cc1nc(-c2cnn(C)c2COC(=O)N(C)CC2CCC2)cnc1O[C@H]1CC[C@H](C(=O)O)C1` (racemic) [Example 16, (±)-Trans-3-((5-(5-((((cyclobutylmethyl)(methyl)carbamoyl)oxy)methyl)-1-methyl-1H-pyrazol-4-yl)-3-methylpyrazin-2-yl)oxy)cyclopentanecarboxylic Acid], with 0.202 µM; and `Cc1nc(-c2onc(C)c2COC(=O)N(C)C2CCCC2)ccc1O[C@H]1CC[C@H](C(C)C(=O)O)C1` (mixture of isomers) [Example 51, (±)-trans-2-[3-({6-[4-({[cyclopentyl(methyl)carbamoyl]oxy}methyl)-3-methyl-1,2-oxazol-5-yl]-2-methyl-pyridin-3-yl}oxy)cyclopentyl]propanoic acid], with 0.024 µM. Then `Cc1nc(-c2nnn(C)c2COC(=O)N(C)CC2CC2)ccc1O[C@H]1CCC[C@H]1CC(=O)O` (racemic) [Example 89, (±)-cis-2-(2-((6-(5-((((cyclopropyl-methyl)(methyl)carbamoyl)oxy)methyl)-1-methyl-1H-1,2,3-triazol-4-yl)-2-methylpyridin-3-yl)oxy)cyclopentyl)acetic acid], with 0.291 µM; and `CCCCN(C)C(=O)OCc1c(-c2ccc(O[C@H]3CC[C@H](CC(=O)O)C3)c(C)n2)nnn1C` (single isomer, unassigned) [Example 5, (±)-Trans-2-(3-((6-(5-(((butyl(methyl)carbamoyl)oxy)methyl)-1-methyl-1H-1,2,3-triazol-4-yl)-2-methylpyridin-3-yl)oxy)cyclopentyl)acetic Acid], with 0.952 µM; and `Cc1nc(-c2nnn(C)c2COC(=O)N(C)CC2CCC2)ccc1OC[C@@H]1CC[C@H](C(=O)O)C1` (single isomer, unassigned) [Example 31], with 0.0108 µM. Then `Cc1nc(-c2cnn(C)c2COC(=O)N(C)CC2CCC2)cnc1O[C@H]1CC[C@H](C(=O)O)C1` (single isomer, unassigned) [Example 17], with 0.416 µM; and `Cc1nc(-c2nnn(C)c2COC(=O)N(C)CC2CCC2)ccc1O[C@H]1CC[C@@H](CC(=O)O)C1` (racemic) [Example 48, (±)-cis-2-[3-({6-[5-({[(cyclobutyl-methyl)(methyl)carbamoyl]oxy}methyl)-1-methyl-1H-1,2,3-triazol-4-yl]-2-methylpyridin-3-yl}oxy)cyclopentyl]acetic acid], with 0.04 µM; and `Cc1nc(-c2nnn(C)c2COC(=O)N(C)CC2CCC2)cnc1O[C@H]1CC[C@H](CC(=O)O)C1` (single isomer, unassigned) [Example 28, 2-(trans-3-((5-(5-((((cyclobutylmethyl)(methyl)carbamoyl)oxy)methyl)-1-methyl-1H-1,2,3-triazol-4-yl)-3-methylpyrazin-2-yl)oxy)cyclopentyl)acetic Acid], with 3.75 µM.

For the molecule `Cc1noc(-c2ccc(OC3CCC(C(=O)O)C3)cn2)c1CNc1nccc(-c2ccccc2)n1` (single isomer, unassigned) [Example 43], the IC50 was found to be 0.05 µM. Then `Cc1nc(-c2nnn(C)c2CNC(=O)OCc2ccccc2)ccc1O[C@@H]1CC[C@@H](C(=O)O)C1` (racemic) [Example 20, (±)-trans-3-((6-(5-((((benzyloxy)carbonyl)amino)methyl)-1-methyl-1H-1,2,3-triazol-4-yl)-2-methyl-pyridin-3-yl)oxy)cyclopentane carboxylic acid], with 0.0397 µM. Then `Cc1nc(-c2nnn(C)c2COC(=O)N(C)CC2CCC2)ccc1O[C@H]1CC[C@H](C(=O)O)C1` (racemic) [Example 75, (±)-trans-3-({6-[5-({[(cyclobutyl-methyl)(methyl)carbamoyl]oxy}methyl)-1-methyl-1H-1,2,3-triazol-4-yl]-2-methylpyridin-3-yl}oxy)cyclo-pentane-1-carboxylic acid], with 0.0425 µM.

`Cc1nc(-c2nnn(C)c2COC(=O)N(C)Cc2ccccc2)ccc1O[C@@H]1CC[C@@H](C(=O)O)C1` (racemic) [Example 22, (±)-trans-3-((6-(5-(((benzyl(methyl)carbamoyl)oxy)methyl)-1-methyl-1H-1,2,3-triazol-4-yl)-2-methylpyridin-3-yl)oxy)cyclopentane carboxylic acid]: the IC50 was 0.182 µM. Then `CCCCN(C)C(=O)OCc1c(-c2ccc(O[C@H]3CC[C@H](CC(=O)O)C3)c(C)n2)nnn1C` (single isomer, unassigned) [Example 4, (±)-Trans-2-(3-((6-(5-(((butyl(methyl)carbamoyl)oxy)methyl)-1-methyl-1H-1,2,3-triazol-4-yl)-2-methylpyridin-3-yl)oxy)cyclopentyl)acetic Acid], with 0.015 µM. Then `Cc1nc(-c2onc(C)c2COC(=O)N(C)C2CCCC2)ccc1O[C@H]1CCC[C@H]1CC(=O)O` (racemic) [Example 85, (±)-Cis-2-(2-((6-(4-(((cyclopentyl(methyl)carbamoyl)oxy)methyl)-3-methylisoxazol-5-yl)-2-methylpyridin-3-yl)oxy)cyclopentyl)acetic Acid], with 0.029 µM. Then `Cc1noc(-c2ccc(OC3CCC(C(=O)O)C3)cn2)c1CNc1nccc(-c2ccccc2)n1` (centres unmarked) [Example 42, 3-((6-(3-methyl-4-(((4-phenylpyrimidin-2-yl)amino)methyl)isoxazol-5-yl)pyridin-3-yl)oxy)cyclopentane-1-carboxylic Acid], with 0.026 µM; and `Cc1nc(-c2nnn(C)c2COC(=O)N(C)CC2CCC2)cnc1O[C@@H]1CC[C@@H](C(=O)O)C1` (racemic) [Example 13, (±)-Trans-3-((5-(5-((((cyclobutylmethyl)(methyl)carbamoyl)oxy)methyl)-1-methyl-1H-1,2,3-triazol-4-yl)-3-methylpyrazin-2-yl)oxy)cyclopentanecarboxylic Acid], with 0.618 µM. On to `Cc1nc(-c2nnn(C)c2CNc2noc(CCC3CCC3)n2)ccc1O[C@H]1CC[C@H](CC(=O)O)C1` (racemic) [Example 80, (±)-2-(3-((6-(5-(((5-(2-cyclobutylethyl)-1,2,4-oxadiazol-3-yl)amino)methyl)-1-methyl-1H-1,2,3-triazol-4-yl)-2-methylpyridin-3-yl)oxy)cyclopentyl)acetic Acid], for which the half-maximal inhibitory concentration (IC50) was determined as 0.108 µM. Then `Cc1nc(-c2nnn(C)c2CNC(=O)OCC2(C)CC2)ccc1O[C@H]1CC[C@H](CC(=O)O)C1` (racemic) [Example 59, (±)-trans-2-[3-[(2-methyl-6-{1-methyl-5-[({[(1-methylcyclopropyl)methoxy]carbonyl}amino)methyl]-1H-1,2,3-triazol-4-yl}pyridin-3-yl)oxy]cyclo-pentyl]acetic acid], with 0.276 µM; and `Cc1nc(-c2nnn(C)c2COC(=O)N(C)C2CCCC2)ccc1O[C@H]1CC[C@H](CC(=O)O)C1` (racemic) [Example 56, (±)-trans-2-[3-({6-[5-({[cyclopentyl(methyl)carbamoyl]oxy}methyl)-1-methyl-1H-1,2,3-triazol-4-yl]-2-methylpyridin-3-yl}oxy)cyclopentyl]acetic acid], with 0.089 µM.

Take `Cc1nc(-c2nnn(C)c2COC(=O)N(C)CC2CCC2)ccc1O[C@H]1CC[C@H](C(=O)O)C1` (single isomer, unassigned) [Example 78, Trans-(1,3)-3-({6-[5-({[(cyclobutyl-methyl)(methyl)carbamoyl]oxy}methyl)-1-methyl-1H-1,2,3-triazol-4-yl]-2-methylpyridin-3-yl}oxy)cyclopentane-1-carboxylic acid]: the IC50 is 0.028 µM. Then `Cc1nc(-c2nnn(C)c2COC(=O)N(C)CCCCF)ccc1O[C@H]1CC[C@H](CC(=O)O)C1` (racemic) [Example 64, (±)-trans-2-[3-({6-[5-({[(4-fluoro-butyl)(methyl)carbamoyl]oxy}methyl)-1-methyl-1H-1,2,3-triazol-4-yl]-2-methylpyridin-3-yl}oxy)cyclo-pentyl]acetic acid], with 0.165 µM; and `Cc1nc(-c2nnn(C)c2COC(=O)N2CC3(CCC3)C2)ccc1O[C@H]1CC[C@H](CC(=O)O)C1` (racemic) [Example 66, (±)-trans-2-[3-({6-[5-({2-azaspiro[3.3]heptane-2-carbonyloxy}methyl)-1-methyl-1H-1,2,3-triazol-4-yl]-2-methylpyridin-3-yl}oxy)cyclopentyl]acetic acid], with 0.452 µM. Then `Cc1nc(-c2nnn(C)c2CNc2noc(CC3CC3)n2)ccc1O[C@H]1CC[C@H](CC(=O)O)C1` (racemic) [Example 82, (±)-trans-2-[3-({6-[5-({[5-(cyclopropyl-methyl)-1,2,4-oxadiazol-3-yl]amino}methyl)-1-methyl-1H-1,2,3-triazol-4-yl]-2-methylpyridin-3-yl}oxy)cyclo-pentyl]acetic acid], with 0.572 µM; and `CCCCN(C)C(=O)OCc1c(-c2nc(C)c(O[C@H]3CC[C@H](CC(=O)O)C3)cc2F)nnn1C` (racemic) [Example 68, (±)-trans-2-[3-({6-[5-({[butyl(methyl)carbamoyl]oxy}methyl)-1-methyl-1H-1,2,3-triazol-4-yl]-5-fluoro-2-methyl-pyridin-3-yl}oxy)cyclopentyl]acetic acid], with 0.147 µM; and `Cc1noc(-c2ccc(O[C@H]3CC[C@H](C(=O)O)C3)cc2)c1COC(=O)N(C)CCC(C)C` (racemic) [Example 72, (±)-trans-3-{4-[3-methyl-4-({[methyl(3-methylbutyl)carbamoyl]oxy}methyl)-1,2-oxazol-5-yl]phenoxy}cyclopentane-1-carboxylic acid], with 0.254 µM.
